Test systems include RXF-631 renal; KM20L2 colon; DMS 273 small cell lung; M19-MEL melanoma; HS 578T breast; MDA-MB-231 breast; DU-145 prostate; MCF7 breast; MDA-N.
What all share (assay): DTP human tumour cell line panel, 48 h

Several values for one entry are separate records, joined by “and”; a condition that tells them apart may be missing. Identical values can stand only once.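 Dose response: 5 concentrations. Exposure: 48 h. Format: 96-well plates. Endpoint: linear interpolation; highest concentration if not reached. GI50 = concentration required for 50% inhibition of growth. TGI denotes the concentration required for complete inhibition of growth.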

Take `CCC(=O)c1cn(C)c(=O)c2ccccc12`: the TGI in the test with RXF-631 renal, in the test on KM20L2 colon and with DMS 273 small cell lung was more than 100 µM each time.
As to `CCOC(=O)CCC(=O)C1c2cccc(O)c2C(=O)c2c(O)cccc21`, the TGI is 2.29 µM in the test on M19-MEL melanoma and 2.73 µM in the test on DMS 273 small cell lung.
For `CC(=O)N/C(=C\c1ccc(/C=C(\NC(C)=O)c2nc3ccc(Cl)cc3[nH]2)cc1)c1nc2ccccc2[nH]1`, the TGI with RXF-631 renal, in the test on KM20L2 colon, with M19-MEL melanoma and in the test with DMS 273 small cell lung was more than 100 µM in each case.
For the compound `O=[N+]([O-])c1ccc2[nH]cc(-c3c4ccsc4cc4[nH]c5ccc([N+](=O)[O-])cc5c34)c2c1`, the GI50 is 0.824 µM in the test with HS 578T breast, 1.2 µM in the test on MDA-MB-231 breast, 0.833 µM in the test on DU-145 prostate and 0.606 µM in the test with MCF7 breast. Also, the TGI with HS 578T breast amounted to 5.49 µM; with MDA-MB-231 breast, 5.75 µM; in the test with DU-145 prostate, 2.69 µM; in the test with MCF7 breast, 4.75 µM.
With `O=C(Nc1ccc(Cl)cc1)Nc1ccc(Cl)c(Cl)c1`, the GI50 was 4.58 µM with HS 578T breast, 2.34 µM with MDA-MB-231 breast, 4.08 µM in the test with DU-145 prostate and 2.27 µM in the test with MCF7 breast. Also, the TGI in the test with HS 578T breast is 85 µM; in the test on MDA-MB-231 breast, 7.65 µM; in the test with DU-145 prostate it was more than 100 µM; in the test on MCF7 breast, 8.9 µM.
For the compound `O=c1ccn(C2OC(CO)C(O)C2O)c(=O)[nH]1` (configuration not stated), the GI50 in the test with MDA-N, with HS 578T breast and with MCF7 breast was more than 1000 µM in each case. The TGI in the test with MDA-N, in the test on HS 578T breast, with MDA-MB-231 breast, in the test with DU-145 prostate and with MCF7 breast was more than 1000 µM in each case.
On to `COc1cc(C2c3cc4c(cc3[C@@H](Nc3ccc(C(=O)O)cc3)C3COC(=O)[C@H]23)OCO4)cc(OC)c1O` (some centres not stated), for which the GI50 in the test with KM20L2 colon was 36.8 µM and > 17.5 µM. In addition, the TGI in the test with KM20L2 colon was more than 100 µM; in the test on M19-MEL melanoma it was 49.6 µM and > 17.5 µM; with DMS 273 small cell lung it was 28.5 µM and > 17.5 µM.
On to `CCN(CC)CCCCC1CCN(CC(=O)N2CC(C)C(=O)Nc3ccccc32)CC1` (configuration not stated), for which the TGI in the test with KM20L2 colon, in the test on M19-MEL melanoma and in the test with DMS 273 small cell lung was more than 100 µM in each case.
The compound `Cc1cc2nc3c(C(OC4OC(CO)C(O)C(O)C4O)C(O)CO)nn(-c4ccccc4)c3nc2cc1C` (configuration not stated) returned a TGI in the test on KM20L2 colon of more than 100 µM.
Turning to `c1ccc2c(c1)[I+]c1ccccc1-2`, the GI50 in the test on HS 578T breast is more than 50 µM; in the test on MDA-MB-231 breast, 47.6 µM; with DU-145 prostate, 35.6 µM; with MCF7 breast, more than 50 µM. Moreover, the TGI with HS 578T breast, with MDA-MB-231 breast, in the test on DU-145 prostate and in the test on MCF7 breast was more than 50 µM throughout.
On to `COC(=O)c1c(-c2ccccc2)cc2c3cc(-c4ccccc4)c(C(=O)OC)n3c3ccccc3n12`, for which the TGI in the test with RXF-631 renal, in the test on KM20L2 colon, in the test with M19-MEL melanoma and in the test with DMS 273 small cell lung was more than 100 µM throughout.
On to `CC(C)=CC(C(O)c1ccccc1)S(=O)(=O)c1nccn1C` (configuration not stated), for which the TGI in the test with RXF-631 renal, in the test on KM20L2 colon, with M19-MEL melanoma and with DMS 273 small cell lung was more than 100 µM in each case.
With `NC(=O)c1c[se]c(C2OC(CO)C(O)C2O)n1` (configuration not stated), the TGI in the test on MDA-N, with RXF-631 renal, with HS 578T breast, in the test on M19-MEL melanoma, with MDA-MB-231 breast and with DMS 273 small cell lung was more than 100 µM in each case. Besides, the TGI with DU-145 prostate and with MCF7 breast was more than 100 µM in each case.
As for `COc1cc2c(cc1OCc1ccccc1)N=C[C@@H]1C/C(=C/C(=O)NCCCN3C(=O)c4cccc5cccc(c45)C3=O)CN1C2=O`, the GI50 with HS 578T breast was 0.539 µM; in the test on MDA-MB-231 breast, 0.708 µM; with DU-145 prostate, 0.381 µM; in the test on MCF7 breast, 0.256 µM. Also, the TGI with HS 578T breast was determined as 6.51 µM; in the test on MDA-MB-231 breast it was 6.14 µM; in the test on DU-145 prostate, 11.9 µM; with MCF7 breast, 14.3 µM.
`O=[N+]([O-])c1c(/C=N/Nc2ccccc2)oc(-c2ccc3c(c2)OCO3)c1-c1ccc2c(c1)OCO2`: the TGI in the test with RXF-631 renal is more than 100 µM; in the test with KM20L2 colon, 37.5 µM; in the test with M19-MEL melanoma, more than 100 µM.
On to `CCCCCCNC(=O)C1=C(C)NC(C)=C(C(=O)NCCCCCC)C1`, for which the TGI in the test with MDA-N, in the test with HS 578T breast, in the test with MDA-MB-231 breast, in the test on DU-145 prostate and with MCF7 breast was more than 100 µM each time.
As for `N#CC(C#N)=C(N)/C(C#N)=C\c1ccnc2ccccc12`, the values for the TGI with M19-MEL melanoma and in the test with DMS 273 small cell lung were 40.8 µM and 40.5 µM, respectively.
With `O=C(O)C1CCc2ccc3ccccc3c2C1c1cccc2ccccc12` (configuration not stated), the TGI in the test on MDA-N was 52.3 µM; in the test with HS 578T breast it was more than 100 µM; with MDA-MB-231 breast, 85.4 µM; with DU-145 prostate, 68.8 µM; with MCF7 breast, 89.4 µM.
For `CCOc1ccccc1NC(=O)/C=C1\NC(=O)CS1`, the TGI in the test on KM20L2 colon, in the test with M19-MEL melanoma and in the test with DMS 273 small cell lung was more than 100 µM each time.
For the compound `CCCCNc1nc(NC(C)(C)C)nc(NC(C)(C)C)n1`, the GI50 in the test with HS 578T breast was 21.1 µM; with MDA-MB-231 breast, 2.27 µM; in the test on DU-145 prostate, 8.82 µM; in the test with MCF7 breast it was 9.94 µM. Besides, the TGI with HS 578T breast is more than 100 µM; in the test on MDA-MB-231 breast, 34.8 µM; in the test with DU-145 prostate, more than 100 µM; in the test on MCF7 breast, more than 100 µM.
Consider `CN(C)CCNc1nc2ccccc2c2c1c1c(n2Cc2ccccc2)-c2ccccc2C1=O`, for which the GI50 in the test on HS 578T breast is 11.3 µM; with MDA-MB-231 breast it was 16.5 µM; with DU-145 prostate, 15 µM; with MCF7 breast, 15.1 µM. Moreover, the TGI is 31.5 µM in the test with HS 578T breast, 32.1 µM in the test on MDA-MB-231 breast, 30.6 µM in the test on DU-145 prostate and 33.6 µM in the test on MCF7 breast.

The values above are taken from PubChem BioAssay (NCI).
